The results in this text go back to patent publication US20190008810A1, “METHOD FOR PREVENTION, TREATMENT AND ALLEVIATION OF INFECTIOUS DISEASES AND DISORDERS” (REPLICON HEALTH OY, priority 2016, published 2019).

Like-named read-outs stand apart in the source and are kept apart here.

Series [1] concerns IPA mice (conjunctival epithelium, lacrimal gland, goblet cells). Description: Intensified pathological attack (IPA) dry eye model in mice, Example 1a. The settings on record: for decrease in the thickening of the conjunctiva compared to relevant control: 7-day IPA, statistically significant. The format is in vivo. Here is the method: In this experiment, intensified pathological attacks towards the eye epithelium is used as a disease model for intensified infectious pressure. The protection of the DGA Activation is measured by inflammatory markers. Because the conjunctival epithelium faces outside environment, the conjunctiva was chosen as one important biomarker. In the following this dry eye disease (also known as keratoconjunctivitis sicca) model experiment is called as the intensified pathological attack model or IPA-model.
All animal experiments were carried out according to the Association for Research in Vision and Ophthalmology and the National Institute of Health (NIH) guidelines for the care and use of laboratory animals. The intensified pathological attack model (IPA-model) was induced to naïve seven-to-ten-week-old C57B1/B6J mice obtained from the vivarium at the University of Eastern Finland. In the experiment 4 cohorts of mice were tested, naïve wild-type mice with IPA (n=5), and IPA mice treated topically with either vehicle (n=5) or (topical) DGA (n=5), and additionally IPA treated mice with orally administered DGA with topical vehicle treatment (n=5). IPA was induced by a combination of scopolamine and exposure to a controlled adverse environment (low humidity, high temperature and high airflow for a period of 7 days) in the IPA-mice system. More detailed treatment and administrations were as follows: Group 1: Non-treated IPA mice, Group 2: IPA mice (topical application of PBS to one eye, the contralateral eye served as control), Group 3: IPA mice topical treatment with DGA (aqueous formulation to one eye, contralateral eye served as control), Group 4: IPA mice—systemic treatment with DGA (ad libitum with chow; topical application of PBS to one eye, the contralateral eye served as control).
The DGA Activation was induced be D-glyceric acid (in its calcium salt form). In the systemic administration, the DGA was mixed into chow ad libitum at the concentration of: 1) 65 mg/kg/day for the first 4 days, and at day 5 at the concentration of 130 mg/kg/day prior the dry-eye induction; 2) thereafter the concentration was 130 mg/kg/day for the whole follow-up period of 7 days. In the topical treatment, the DGA was administered topically, as aqueous formulation in PBS. […]
Tear volume was measured for groups 3 and 4 and later comparison results for group 2 were received. […] In addition, animals were monitored daily for general health status. The lacrimal glands were embedded into paraffin, sectioned, stained and analyzed for possible pathology.

Series [2] relates to acute bowels inflammation caused by diverticulitis. Description: Healing from acute inflammatory bowels disease (diverticulitis) in S4, Example 1e. The format is in vivo, human. An excerpt: In Example 1e the resolution of gastrointestinal tract infection in another subject 4 (S4) has been shown. Like in S1 also in S4 the HO-1 pathway is clearly activated by the DGA Activation. This is indirectly shown by the clear reduction of blood bilirubin in Table 1e. […] During last few years these seldom but acute inflammations in the gastrointestinal tract have been mostly in the colon and caused by inflammation in Colonic diverticula. […] The only functioning therapy for inflammatory bowels disease has been the administration of strong intravenous antibiotics.
Like other tests with unhealthy humans also this test was done because there were no other efficient substances available. When symptoms of increased bowels inflammation/diverticulosis started S4 was on holiday abroad with very difficult access to any specialized doctor not to mention any hospital. […] Simultaneously with inflammatory symptoms and maybe partially enhancing them S4 experienced constipation.
By Saturday night on the 4th day of gradually increasing acute inflammation in the colon, S4 decided to test whether DGA Activation in combination with paracetamol would assist in resolving this already rather serious inflammation. There were no other available options at that moment. This decision was also supported by confidential information received on positive results with S1 (Examples 1b and 1c).
Saturday night at 0737 pm first 260 mg of D-glyceric acid calcium salt mixed into water was taken with 2×500 mg of paracetamol. Another additional 260 mg dose of DGAcs mixed into water was taken the same night at 1020 pm. Altogether the starting dose was 9 mg/kg i.e. relatively high. High initial dose was chosen because of high level of inflammation.

The subject of series [3] is severe IBD. Type of series: in vivo, human. The source says: During the year following acute bowels infection and inflammation described in above (Example 1 e) they were placed by a specialist MD into queue for demanding operation to remove inflammation prone part from their bowels. While waiting for this operation (roughly a year from above described previous serious bowels inflammation (IBD)) S4 got serious IBD again. This happened as a follow up of two-week business trip during which the diet was not at all optimal and working was rather intensive.
By Saturday the symptoms were so severe that S4 could not walk properly. It was decided that […] rests for the weekend and goes to a doctor on Monday morning.
Because based on Example 1 e it is already known that the DGA Activation can efficiently reduce IBD in S4, it was decided that S4 starts using DGA immediately to reduce the inflammation. (Also, all other information presented in this application, including all other experiments and dose response analyses were available already, except for Example 1 g.) Initial dose was set relatively high because the inflammation was very severe and because it is known from all other experiments that there were no negative effects for S4 from the DGA Activation. 3×200 mg mixed into 2 dl of water was taken 3 times during Saturday, first dose at 0300 pm, next dose 2 hours thereafter and the last dose 4 hours after the second dose, i.e. at 0900 pm. Inflammatory symptoms remained high but fever reduced from 36.80 Celsius (before DGA activation) to 36.03 by 0939 pm. Paracetamol (1000 mg) was taken after the last fever measurement thus not affecting the decline. Another paracetamol was taken earlier the day at 0346 pm.

Regarding `O=C(O)[C@H](O)CO` [DGA, D-glyceric acid], the “number of goblet cells vs 0-controls” value in series [1] (DGA activation groups vs 0-controls) was “No meaningful differences”. In series [1] (systemic (group 4) vs placebo 0-control), the “lacrimal gland pathology (inflammation)” value was “reduces inflammation statistically significantly”. Moreover, the “decrease in the thickening of the conjunctiva compared to relevant control” value in series [1] (systemic, mixed with chow 130 mg/kg/day) is on record as around 20%; in series [1] (topical eye drops 30 μg/ml, 5 μL 4× daily), around 20%. Also, the “time needed to turn the inflammatory process clearly down” value in series [2] (S4) is around 36 h. Moreover, the defecation result in series [2] (S4, Sunday 0910 am, morning after 2×260 mg DGAcs with 2×500 mg paracetamol) is “could defecate (almost normally) for the first time in 3 days”. In addition, the pains in bowels result in series [2] (S4, Wednesday morning, after 240 mg twice a day) was “All the pains in bowels had disappeared”. The “time to restoring defecation” value in series [3] (S4) fell in the range of 12 to 16 h. Also, the “Blood CRP” value in series [3] (S4, Friday 1100 am) came out at 11. The compound also returned a CRP level in series [3] (S4, Monday 0030 pm, 3×200 mg four times a day) of 85. The fever in series [3] (S4, Saturday 0939 pm after 3 doses of 3×200 mg, 36.80 before) was found to be 36.03 Celsius; in series [3] (S4, Sunday 0115 pm, normal 36.1), 35.83; in series [3] (S4, Sunday 0145) it was 36.16. The same compound came in with a CRP in series [3] (S4, Wednesday noon, without antibiotics) of 22. Further, the side effects entry in series [3] (in vivo) is recorded as “did not cause any side effects”.
